Earlier results in PMC7439511 (Science Advances, 2020).

Test system: RACK7 (ZMYND8)

| Substance | RACK7 binding to N-terminal tail of histone H3 |
| --- | --- |
| H3K4me0: H3K4me0 (H3) peptide, amino acids 1 to 21 | bind |
| H3K4me1: H3K4me1 peptide, amino acids 1 to 21 | bind |
